Laboratory results from paper PMC4183567, “Cysteine Transport through Excitatory Amino Acid Transporter 3 (EAAT3)” (PLoS ONE, 2014).
Several values for one entry are separate records, joined by “and”; a condition that tells them apart may be missing. Equal values may be shown once.

Legend:
EAAT2 [1] = target: T1, EAAT2 (Homo sapiens, UniProt P43004); test: Two-electrode voltage clamp transport currents in Xenopus oocytes expressing EAAT2; format: cell-based; conditions: 1 mM substrate vs 1 mM glutamate, -60 mV
T1 sequence (P43004 whole entry): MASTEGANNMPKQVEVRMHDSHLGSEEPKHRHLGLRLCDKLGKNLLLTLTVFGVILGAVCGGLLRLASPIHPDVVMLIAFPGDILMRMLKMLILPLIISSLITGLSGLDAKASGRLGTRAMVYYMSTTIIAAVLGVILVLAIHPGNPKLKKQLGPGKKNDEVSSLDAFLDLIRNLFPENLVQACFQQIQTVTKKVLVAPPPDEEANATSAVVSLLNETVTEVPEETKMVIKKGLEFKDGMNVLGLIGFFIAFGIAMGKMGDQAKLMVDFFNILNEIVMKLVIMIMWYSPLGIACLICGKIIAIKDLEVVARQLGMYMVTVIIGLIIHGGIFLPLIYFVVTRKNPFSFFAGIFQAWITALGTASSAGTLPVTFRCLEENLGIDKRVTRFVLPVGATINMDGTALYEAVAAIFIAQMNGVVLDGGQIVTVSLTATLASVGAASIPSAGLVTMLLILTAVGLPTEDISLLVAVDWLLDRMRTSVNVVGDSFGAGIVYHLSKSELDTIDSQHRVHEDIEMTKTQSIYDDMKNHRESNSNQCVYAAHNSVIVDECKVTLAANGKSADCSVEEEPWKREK
Procedure: (§1) mRNA from linearized pOTV-EAAT1, pOTV-EAAT2 and pOTV-EAAT3 was generated as previously described and resuspended in RNAase-free water and used for oocytes injections. Xenopus oocytes where injected with 50 nl of mRNA and incubated at 18°C in 96 mM NaCl, 2 mM KCl, 1.8 mM CaCl2, 1.0 mM MgCl2, 5 mM HEPES, pH 7.4 (ND96) supplemented with 2.5 mM Sodium Pyruvate and Gentamicyn for 2 to 3 days prior to using in electrophysiological recordings and radio-labeled transport experiments.
(§2) Oocytes were held at −60 mV, and currents elicited by 200 ms voltage steps between −120 mV and +60 mV were filtered at 2 kHz (−3dB) and digitalized with a sampling rate of 10 kHz using a Digidata AD/DA converter (Molecular Devices, Sunnyvale, CA, USA). Borosilicate pipets where filled with 3 M KCl and typical resistances where 0.2 to 1 MΩ. Transport currents were determined at −60 mV in a gluconate-based ND96 solution. In order to dialyze internal chloride, oocytes were incubated 12 to 24 hours in the gluconate solution. Anion currents were determined at positive potentials (+60 mV) after exchanging the external solution to NO3-based ND96 (replacement of 96 mM NaCl with 96 mM NaNO3) solution in the absence or in the presence of 1 mM external substrates. […] Data were analyzed with a combination of pClamp 9.2 (Axon Instrument) and Sigma Plot (Jandel Scientific, San Rafael, CA, USA). […]

EAAT3 and ASCT1 [2] = test: Release of preloaded [35S]-L-cysteine from Xenopus oocytes co-expressing EAAT3 and ASCT1; format: cell-based, human
Procedure: mRNA from linearized pOTV-EAAT1, pOTV-EAAT2 and pOTV-EAAT3 was generated as previously described and resuspended in RNAase-free water and used for oocytes injections.
(§3) Oocytes were washed 3 times in ND96 buffer followed by incubation for 10 min with non-radiolabeled substrates as indicated. The supernatant was removed and collected for scintillation counting, while the oocytes were lysed in 1% sodium dodecylsulfate (SDS). The oocytes lysate and supernatant were counted separately by liquid scintillation counting to determine both retained and released radioactivity respectively. Percent of released radioactivity was determined as a function of the released/(retained + released).

EAAT3 [3] = system: EAAT3; design: method as in PMID 8782106; conditions: EAAT3 vs other EAATs; cited from earlier work
EAAT3 and ASCT1 [4] = target: T2, EAAT3 and ASCT1 (Homo sapiens, UniProt P43005); test: Release of preloaded [3H]-L-glutamate from Xenopus oocytes co-expressing EAAT3 and ASCT1; format: cell-based; conditions: extracellular cysteine, concentration not given
T2 construct: expressed in transfected cells; host or cells: Xenopus oocytes
T2 sequence (P43005 1-524): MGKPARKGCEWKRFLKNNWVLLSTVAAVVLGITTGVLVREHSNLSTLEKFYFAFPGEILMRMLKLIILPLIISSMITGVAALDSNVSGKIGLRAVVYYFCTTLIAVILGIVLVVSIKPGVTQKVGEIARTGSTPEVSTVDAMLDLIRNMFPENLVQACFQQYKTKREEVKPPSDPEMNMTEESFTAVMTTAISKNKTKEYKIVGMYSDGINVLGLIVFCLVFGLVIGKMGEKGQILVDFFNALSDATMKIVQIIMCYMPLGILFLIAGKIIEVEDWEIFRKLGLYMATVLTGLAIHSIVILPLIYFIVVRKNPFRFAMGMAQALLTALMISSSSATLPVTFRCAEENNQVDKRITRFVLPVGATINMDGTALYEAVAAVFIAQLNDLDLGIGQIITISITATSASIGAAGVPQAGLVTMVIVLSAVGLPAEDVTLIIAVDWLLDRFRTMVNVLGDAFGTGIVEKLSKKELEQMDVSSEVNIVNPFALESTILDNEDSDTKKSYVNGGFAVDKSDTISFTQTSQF
Procedure: as §1, §3

EAAT2 [5] = target: T1, EAAT2; test: mEGFPpH fluorescence imaging of intracellular pH in HEK293 cells co-expressing EAAT2; format: cell-based; design: expressed in transfected cells; host or cells: HEK293
Excerpt: (§6) Cells expressing mEGFPpH were imaged with a Zeiss Axiovert 135T inverted microscope with a 40X NeoFluar oil immersion objective (NA1.3). A Lambda DG4 (Sutter Instrument Co.) equipped with a xenon arc lamp was used for high-speed excitation wavelength switching. Images were collected using either a Quantix (Roper Scientific, Tucson, AZ) or an Orca ER (Hammamatsu Co.) cooled CCD. For pH imaging experiments, the fluorescence filters (Omega Optical) were: excitation 405±20 and 485±7.5; dichroic 400-480-585DLRP; emission 510±11.5. Software control and data acquisition were accomplished using Axon Imaging Workbench (INDEC Biosystems) or OpenLab acquisition software (Improvision, Perkin Elmer). Cells were incubated at room temperature with continuous perfusion using standard buffer containing (in mM): 146 NaCl, 5 KCl, 5 HEPES, 2.5 CaCl2 and 1.2 MgCl2 at pH 7.35 with additions (substrates etc.) as indicated in figure legends. Acquisition exposure times were identical for both 405 nm and 485 nm excitation wavelengths adjusted so that the 510 emission was not saturated for either excitation wavelength. Prior to perfusion with buffers containing substrates, cells were perfused in standard buffer to achieve a stable base line. Fluorescence was reported as the ratio of fluorescence at 510 nm by excitation with 485 and 405 nm wavelengths (F485/F405).

EAAT1 = target: T3, EAAT1 (Homo sapiens, UniProt P43003); test: Two-electrode voltage clamp transport currents in Xenopus oocytes expressing EAAT1; format: cell-based; conditions: 1 mM substrate vs 1 mM glutamate, -60 mV
T3 construct: expressed in transfected cells; host or cells: Xenopus oocytes injected with mRNA
T3 sequence (P43003 whole entry): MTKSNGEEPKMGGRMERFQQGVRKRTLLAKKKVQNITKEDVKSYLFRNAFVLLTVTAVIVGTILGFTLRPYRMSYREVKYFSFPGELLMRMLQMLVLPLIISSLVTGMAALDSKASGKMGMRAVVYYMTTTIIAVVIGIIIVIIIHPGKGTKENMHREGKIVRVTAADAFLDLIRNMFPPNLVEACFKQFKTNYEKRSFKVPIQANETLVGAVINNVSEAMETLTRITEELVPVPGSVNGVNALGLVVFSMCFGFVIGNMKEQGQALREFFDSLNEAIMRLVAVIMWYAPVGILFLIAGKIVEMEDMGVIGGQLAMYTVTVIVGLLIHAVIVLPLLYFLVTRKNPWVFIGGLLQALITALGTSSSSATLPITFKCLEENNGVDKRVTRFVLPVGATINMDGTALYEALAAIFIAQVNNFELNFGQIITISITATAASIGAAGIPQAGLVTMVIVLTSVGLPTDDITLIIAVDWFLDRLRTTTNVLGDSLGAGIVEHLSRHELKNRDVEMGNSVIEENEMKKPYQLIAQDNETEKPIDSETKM
Procedure: as §1, §2

EAAT2 [6] = system: EAAT2; design: method as in PMID 8782106; conditions: EAAT2, low affinity; read-out: Km for cysteine transport; cited from earlier work
[7] = Protonation state calculated with the Henderson-Hasselbalch equation; format: physicochemical
EAAT2 [8] = target: T1, EAAT2; test: Substrate inhibition of [3H]-L-glutamate uptake in HEK293 cells expressing EAAT2; format: cell-based; design: expressed in transfected cells; host or cells: HEK293; conditions: read-out: inhibition of glutamate transport; EAAT2 HEK293 cells, 1 mM inhibitor
Procedure: (§4) For radiolabeled transport experiments, 2×10^6 cells were transfected in 1 mL of Opti-Mem (Life Technologies) using 6 µL of Lipofectamine 2000 (Invitrogen) with 1 µg pCMV-EAAT2 or pCMV-EAAT3 DNA and plated at 5×10^4 cells/well in 24 well Costar (Corning) plates with 0.5 mL DMEM culture media prepared as above. Following transfection and plating, cells were cultured 2–3 days prior to [^3H]-L-Glutamate transport experiments.
(§5) Transport was allowed to proceed for 10 min and was terminated by 3 washes with cold perfusion buffer. Cells were lysed with 1% SDS/0.1N NaOH and radioactivity determined by scintillation counting. Data analysis was performed using Graphpad Prism (Graphpad Software Inc.).

EAAT3 [9] = target: T4, EAAT3 (Homo sapiens, UniProt P43005); test: Substrate inhibition of [3H]-L-glutamate uptake in HEK293 cells expressing EAAT3; format: cell-based; design: expressed in transfected cells; host or cells: HEK293
T4 sequence (P43005 1-524): T2 sequence (P43005 1-524)
Procedure: as §4, §5

EAAT3 [10] = target: T4, EAAT3; test: mEGFPpH fluorescence imaging of intracellular pH in HEK293 cells co-expressing EAAT3; conditions: EAAT3 HEK293 cells
Excerpt: as §6

EAAT3 [11] = target: T4, EAAT3; test: Two-electrode voltage clamp transport currents in Xenopus oocytes expressing EAAT3; format: cell-based; conditions: 1 mM substrate vs 1 mM glutamate, EAAT3 oocytes, -60 mV
Procedure: as §1
Oocytes were held at −60 mV, and currents elicited by 200 ms voltage steps between −120 mV and +60 mV were filtered at 2 kHz (−3dB) and digitalized with a sampling rate of 10 kHz using a Digidata AD/DA converter (Molecular Devices, Sunnyvale, CA, USA). Borosilicate pipets where filled with 3 M KCl and typical resistances where 0.2 to 1 MΩ. Transport currents were determined at −60 mV in a gluconate-based ND96 solution. In order to dialyze internal chloride, oocytes were incubated 12 to 24 hours in the gluconate solution. Anion currents were determined at positive potentials (+60 mV) after exchanging the external solution to NO3-based ND96 (replacement of 96 mM NaCl with 96 mM NaNO3) solution in the absence or in the presence of 1 mM external substrates. In experiments using cysteine as a substrate, all solutions contained 2 mM dithiothreitol (DTT). Data were analyzed with a combination of pClamp 9.2 (Axon Instrument) and Sigma Plot (Jandel Scientific, San Rafael, CA, USA). Whole cell current amplitudes are shown without any subtraction protocol. Current-voltage relationships were constructed by plotting the isochronal current 6 ms after the voltage step versus the membrane potential. All data are given as the mean ± standard deviation of the mean (SDM). For evaluation the statistical relevance, the Student’s t-Test was used with an α of 0.05.

transport current amplitude relative to glutamate transport current (EAAT2 [1]): 7.0±4.2% | release of loaded [3H]-L-glutamate (EAAT3 and ASCT1 [4]): 7.5% | slope of fluorescence change normalized to that of 100 µM glutamate (EAAT2 [5]; selenocysteine at 100 µM): no observable fluorescence changes | transport current amplitude relative to glutamate transport current (EAAT1): 33±1.5% | fraction in thiolate form ([7]; pH 6.9): ~3.8% and 4% | fraction in thiolate (R-S-) form ([7]; pH 8.5): ~61% | fraction in thiolate form ([7]; pH = 7.5): ~14% | fraction protonated ([7]; physiological pH): ~90% | inhibition at 1000 µM (EAAT2 [8]): 20% | IC50 (EAAT3 [9]): 631 ± 50 µM | inhibition at 1000 µM (EAAT3 [9]; read-out: inhibition of glutamate uptake, EAAT3 HEK293 cells, 1 mM inhibitor): 70% | mEGFPpH fluorescence change (EAAT3 [10]; 1 mM perfusion): increase in mEGFPpH fluorescence | slope of fluorescence change normalized to that of 100 µM glutamate (EAAT3 [10]; selenocysteine at 100 µM, cysteine change opposite in direction): 0.28±0.03 | transport current amplitude relative to glutamate transport current (EAAT3 [11]): 86±14%
Compound: N[C@@H](CS)C(=O)O [cysteine, L-cysteine]
fold increase of [35S]-cysteine release over that released by glutamate application (EAAT3 and ASCT1 [2]; 300 µM cysteine vs 100 µM glutamate): 5 fold | release of preloaded [35S]-L-cysteine (EAAT3 and ASCT1 [2]; 300 µM extracellular substrate, 10 min): 10% | fold higher apparent affinity for transport (Km) than the other members of the family (EAAT3 [3]): approximately 10 fold | mEGFPpH fluorescence change (EAAT2 [5]; 1 mM perfusion): did not produce observable fluorescence changes from baseline | Km (EAAT2 [6]): > 1000 µM
